The text below walks through data of patent US10654834B2 (Venenum Biodesign, LLC, priority 2016, dated 2020).

The structures appear in SMILES notation.

One test concerns the target T1, human TGR5 receptor (Homo sapiens, UniProt Q8TDU6).
T1 construct: host or cells: CHO-K1 (hTGR5-CHO)
T1 sequence (Q8TDU6 1-330): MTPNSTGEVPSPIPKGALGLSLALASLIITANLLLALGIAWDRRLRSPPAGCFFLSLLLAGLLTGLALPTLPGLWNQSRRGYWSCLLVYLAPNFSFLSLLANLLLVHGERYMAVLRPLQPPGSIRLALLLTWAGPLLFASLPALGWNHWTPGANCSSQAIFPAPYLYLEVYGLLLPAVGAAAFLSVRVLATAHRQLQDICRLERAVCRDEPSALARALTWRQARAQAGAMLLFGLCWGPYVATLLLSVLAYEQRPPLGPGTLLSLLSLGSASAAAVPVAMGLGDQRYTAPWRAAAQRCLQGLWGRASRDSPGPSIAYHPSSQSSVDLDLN
Description: Human TGR5 cAMP production assay (hTGR5-CHO cells, DiscoveRx cAMP XS+ kit). The format is cell-based. Particulars: luminescent cAMP assay, read-out: Human TGR5 Lum. cAMP Activity (EC50). As for the experimental part: Human TGR5 cAMP Production Assay
Compounds of the present invention were evaluated for their ability to induce cAMP production using CHO-K1 cells overexpressing the human TGR5 receptor.
CHO-K1 cells stably expressing human TGR5 receptor (accession number NM_001077194.1) (hTGR5) (i.e., hTGR5-CHO cells) were purchased from DiscoveRx Corporation (Fremont, Calif.). hTGR5-CHO cells were grown in Ham's F-12 media supplemented with 10% Fetal Bovine Serum, 1% Penicillin-Streptomycin, 2 mM L-Alanine L-Glutamine (Glutamax), and 800 μg/mL Geneticin selection. The cAMP production assay was performed using DiscoveRx's cAMP XS+ kit (Catalog No. 90-0075XL) following the manufacturer's recommended protocol. Briefly, hTGR5-CHO cells were harvested using non-enzymatic cell dissociation buffer (Sigma-Aldrich, St. Louis, Mo.) and 1×10^6 cells were combined in Phosphate-Buffered Saline (PBS) to a final volume of 496 μL to which 4 μL of 125 mM IBMX (Sigma-Aldrich, St. Louis, Mo.) was added. 500 μL of cAMP antibody solution was added to the harvested cells and incubated at room temperature for 20 min.
Test compounds were serially diluted (half-log dilutions) in DMSO and then further diluted 1:50 in PBS, 10 mM HEPES buffer. 2 μL of serially diluted compound was added to a 384-well low volume plate (Greiner; cat #784075) and centrifuged briefly. 2 μl of the cell/cAMP antibody mixture was then added to each compound-containing well and allowed to incubate at room temperature for one hour. Following incubation, the XS+ kits' ED/Lysis/CL Substrate Working Solution was prepared following the manufacturer's recommended protocol and 4 μL was added to each well of the plate. The plate was then incubated for one hour at room temperature. Following incubation, 4 μL of Enzyme Acceptor reagent was added to the plate and allowed to incubate overnight at room temperature. Luminescent signal was then detected using the Viewlux instrument (Perkin-Elmer, Waltham, Mass.).
Human and Mouse TGR5 cAMP
(§1) In Table 52, EC50 values for both human and mouse cells were determined according to the TGR5 cAMP assays described above. […]

The next test addresses T2, mouse TGR5 receptor (Mus musculus, UniProt Q80SS6).
T2 construct: host or cells: HEK293-EBNA (293 c18, ATCC CRL10852)
T2 sequence (Q80SS6 1-329): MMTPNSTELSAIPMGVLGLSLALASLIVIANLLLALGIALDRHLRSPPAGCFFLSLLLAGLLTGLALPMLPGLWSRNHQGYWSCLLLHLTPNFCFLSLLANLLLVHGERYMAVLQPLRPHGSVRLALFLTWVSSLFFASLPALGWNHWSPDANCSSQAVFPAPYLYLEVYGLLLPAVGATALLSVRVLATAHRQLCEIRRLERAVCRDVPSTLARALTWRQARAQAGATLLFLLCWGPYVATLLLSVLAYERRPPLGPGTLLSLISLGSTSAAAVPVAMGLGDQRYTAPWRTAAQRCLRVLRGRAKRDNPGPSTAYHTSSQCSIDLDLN
Description: Mouse TGR5 HTRF cAMP production assay (HEK293-EBNA cells, Cisbio cAMP HiRange kit). The test is classed as cell-based. The following applies: HEK293-EBNA cells overexpressing mouse TGR5, HTRF cAMP assay. As for the experimental part: Mouse TGR5 cAMP Production Assay
Compounds of the present invention were evaluated for their ability to induce cAMP production in HEK-EBNA cells overexpressing the mouse TGR5 receptor. Human embryonic kidney cells (HEK293-EBNA) stably expressing mouse TGR5 receptor were established using the following procedure. Specifically, a commercially obtained gene encoding mouse TGR5 (accession number BC116914) from Thermo Scientific (Waltham, Mass.) was cloned into an episomal expression vector. The resulting expression plasmid was then transfected into 293 c18 (ATCC® CRL10852™) cells, which express the Epstein-Barr virus nuclear antigen EBNA1 and can support the replication of episomal vectors. Selection for the plasmid was maintained with Hygromycin B. Cells were cultured and maintained in DMEM (Sigma; cat #6429) supplemented with 10% Fetal Bovine Serum, 1% penicillin/streptomycin, 2 mM L-alanine L-glutamine (GlutaMax), and 250 μg/mL Hygromycin.
We developed two cAMP production assays.
(ii) HTRF cAMP Production Assay
In this second cAMP production assay, the cAMP production was measured in 384-well low volume plates (Greiner; cat #784075) using the Cisbio™ cAMP HiRange HTRF Assay Kit (CisBio) according to the manufacturer's protocol.
Briefly, compounds were initially diluted in 100% DMSO (12-point serial dilution by half logs) in a 96-well plate and then were further diluted 1:50 in PBS containing 10 mM HEPES. 5 μL were transferred to the 384-well assay plate in duplicate. HEK293-EBNA cells stably overexpressing mouse TGR5 were harvested using non-enzymatic cell dissociation buffer (Sigma), spun down, then resuspended in serum-free DMEM with 500 μM IBMX at a density of 500,000 cells/mL. 5 μL of cell suspension was transferred to each well of the 384-well assay plate already containing compound. The plate was covered and incubated at room temperature for 1 hour. The d2-cAMP and anti-cAMP Ab-cryptate stock solutions were prepared as per kit instructions. Then 5 μL of each conjugate (d2 and cryptate) were added to each well of the assay plate. The plate was covered and incubated at room temperature for one (1) hour. The plate was read on an Envision™ plate reader (PerkinElmer).
as §1
For orientation: Time-resolved FRET reads energy transfer from a long-lived donor to a nearby acceptor.

Consider `CCOC(=O)CCN/C(=N\C#N)NCCC1CCN(c2cc(N3CC[C@H]3C(=O)NCCc3ccc(C#N)cc3)nc(C(F)(F)F)n2)CC1` [Compound 350, (S,Z)-ethyl 3-(2-cyano-3-(2-(1-(6-(2-((4-cyanophenethyl)carbamoyl)azetidin-1-yl)-2-(trifluoromethyl)pyrimidin-4-yl)piperidin-4-yl)ethyl)guanidino)propanoate], for which the EC50 on human TGR5 receptor and at mouse TGR5 receptor was under 100 nM each time.

As for `N#Cc1ccc(CCNC(=O)[C@@H]2CCCN2c2cc(-c3csc(CO)c3)nc(C(F)(F)F)n2)cc1` [Compound 182, (S)—N-(4-cyanophenethyl)-1-(6-(5-(hydroxymethyl)thiophen-3-yl)-2-(trifluoromethyl)pyrimidin-4-yl)pyrrolidine-2-carboxamide], the concentration for a half-maximal effect (EC50) at human TGR5 receptor was 100 to 999 nM; at mouse TGR5 receptor it was under 100 nM.

Take `CN(CC#CCOC1CCN(c2cc(N3CCC[C@H]3C(=O)NCCc3ccc(C#N)cc3)nc(C(F)(F)F)n2)CC1)CCS(=O)(=O)O` [Compound 135, (S)-2-((4-((1-(6-(2-((4-cyanophenethyl)carbamoyl)pyrrolidin-1-yl)-2-(trifluoromethyl)pyrimidin-4-yl)piperidin-4-yl)oxy)but-2-yn-1-yl)(methyl)amino)ethanesulfonic acid]: the EC50 is 100 to 999 nM on human TGR5 receptor and under 100 nM on mouse TGR5 receptor.

As to `O=C(O)CCNC(=O)NCCC1CCN(c2cc(N3CCC[C@H]3C(=O)NCCc3ccc(-c4cccnc4)cc3)nc(C(F)(F)F)n2)CC1` [Compound 377, (S)-3-(3-(2-(1-(6-(2-((4-(pyridin-3-yl)phenethyl)carbamoyl)pyrrolidin-1-yl)-2-(trifluoromethyl)pyrimidin-4-yl)piperidin-4-yl)ethyl)ureido)propanoic acid], the concentration giving a half-maximal response (EC50) on human TGR5 receptor and on mouse TGR5 receptor was 100 to 999 nM throughout.

Turning to `N=C(N)NCCCC1CCN(c2cc(N3CCC[C@H]3C(=O)NCCc3ccc(C(F)(F)F)cc3)nc(C(F)(F)F)n2)CC1` [Compound 132, (S)-1-(6-(4-(3-guanidinopropyl)piperidin-1-yl)-2-(trifluoromethyl)pyrimidin-4-yl)-N-(4-(trifluoromethyl)phenethyl)-pyrrolidine-2-carboxamide], the EC50 at human TGR5 receptor and on mouse TGR5 receptor was under 100 nM throughout.

In the case of `N#Cc1ccc(CCNC(=O)[C@@H]2CCCN2c2cc(N3CCC(CCCC(=O)N[C@@H](CCCNC(=N)N)C(=O)O)CC3)cc(C(F)(F)F)n2)cc1` [Compound 200, (S)-2-(4-(1-(2-((S)-2-((4-cyanophenethyl)carbamoyl)pyrrolidin-1-yl)-6-(trifluoromethyl)pyridin-4-yl)piperidin-4-yl)butanamido)-5-guanidinopentanoic acid], the EC50 on human TGR5 receptor and at mouse TGR5 receptor was under 100 nM throughout.

In the case of `COc1cc(C(F)(F)F)ccc1CCNC(=O)[C@@H]1CCN1c1cc(N2CCC(CO)CC2)nc(C(F)(F)F)n1` [Compound 237, (S)-1-(6-(4-(hydroxymethyl)piperidin-1-yl)-2-(trifluoromethyl)pyrimidin-4-yl)-N-(2-methoxy-4-(trifluoromethyl)phenethyl)azetidine-2-carboxamide], the half-maximal effective concentration (EC50) on human TGR5 receptor and at mouse TGR5 receptor was under 100 nM throughout.

On to `COC(=O)[C@@H](N)CCCCNC(=O)CCCC1CCN(c2cc(N3CCC[C@H]3C(=O)NCCc3ccc(C#N)cc3)nc(C(F)(F)F)n2)CC1` [Compound 71, (S)-methyl 2-amino-6-(4-(1-(6-((S)-2-((4-cyanophenethyl)carbamoyl)-pyrrolidin-1-yl)-2-(trifluoromethyl)-pyrimidin-4-yl)piperidin-4-yl)butanamido)hexanoate], for which the EC50 at human TGR5 receptor and on mouse TGR5 receptor was under 100 nM each time.

Turning to `COc1cc(C(F)(F)F)ccc1CCNC(=O)[C@@H]1CCCN(c2cc(N3CCC(CO)CC3)nc(C(F)(F)F)n2)C1` [Compound 331], the EC50 was under 100 nM at human TGR5 receptor and 100 to 999 nM on mouse TGR5 receptor.

For `N#Cc1ccc(CCNC(=O)[C@@H]2CCCN2c2cc(N3CCC(CC(=O)O)CC3)nc(C(F)(F)F)n2)cc1` [Compound 27], the EC50 on human TGR5 receptor is 100 to 999 nM; at mouse TGR5 receptor it was under 100 nM.

On to `N#Cc1ccc(CCNC(=O)[C@@H]2CCCN2c2cc(N3CCC(CCCC(=O)NCCN)CC3)nc(C(F)(F)F)n2)cc1` [Compound 92, (S)-1-(6-(4-(4-((2-aminoethyl)amino)-4-oxobutyl)piperidin-1-yl)-2-(trifluoromethyl)pyrimidin-4-yl)-N-(4-cyanophenethyl)pyrrolidine-2-carboxamide], for which the EC50 on human TGR5 receptor and on mouse TGR5 receptor was under 100 nM in each case.

In the case of `O=C(NCCc1ccc(C(F)(F)F)cc1)[C@@H]1CCN1c1cc(N2CCC(CCCC3CCN(C(=O)CS(=O)(=O)O)CC3)CC2)nc(C(F)(F)F)n1` [Compound 280, (S)-2-oxo-2-(4-(3-(1-(2-(trifluoromethyl)-6-(2-((4-(trifluoromethyl)phenethyl)carbamoyl)azetidin-1-yl)pyrimidin-4-yl)piperidin-4-yl)propyl)piperidin-1-yl)ethanesulfonic acid], the results for the EC50 on human TGR5 receptor and at mouse TGR5 receptor were 100 to 999 nM and under 100 nM, respectively.

For the compound `N#Cc1ccc(CCNC(=O)[C@@H]2CCCN(c3cc(N4CCN(CCn5ccnc5)CC4)nc(C(F)(F)F)n3)C2)cc1` [Compound 318, (R)-1-(6-(4-(2-(1H-imidazol-1-yl)ethyl)piperazin-1-y1)-2-(trifluoromethyl)pyrimidin-4-yl)-N-(4-cyanophenethyl)piperidine-3-carboxamide], the EC50 was 100 to 999 nM at human TGR5 receptor and under 100 nM at mouse TGR5 receptor.

Turning to `COC(=O)[C@H](CCC[N+](C)(C)C)NC(=O)CCCC1CCN(c2cc(N3CCC[C@H]3C(=O)NCCc3ccc(C#N)cc3)nc(C(F)(F)F)n2)CC1` [Compound 65, (S)-4-(4-(1-(6-((S)-2-((4-cyanophenethyl)carbamoyl)pyrrolidin-1-yl)-2-(trifluoromethyl)pyrimidin-4-yl)piperidin-4-yl)butanamido)-5-methoxy-N,N,N-trimethyl-5-oxopentan-1-aminium], the EC50 on human TGR5 receptor and at mouse TGR5 receptor was under 100 nM in each case.

In general, EC50 refers to the midpoint of the concentration-response curve.
